# Source: DBAASP
# Values joined by “and” are separate entries in the source; they are usually repeats but may differ in a detail not shown here. Identical values can stand only once.
# How the values were obtained:
# Assay in all cases: ≥ marks a high value that may be exact or a test limit, other limits are often not marked, values filed in µg/mL are converted to µM
# [1] = test system: Pseudomonas aeruginosa ATCC 27853
# [2] = test system: Candida krusei
# [3] = test system: Escherichia coli ATCC 25922
# [4] = test system: Candida tropicalis B51a/5
# [5] = test system: Enterobacter cloacae HNTCC 53001
# [6] = test system: Candida parapsilosis
# [7] = test system: Candida krusei ATCC 6258
# [8] = test system: Proteus mirabilis ATCC 25933
# [9] = test system: Candida albicans ATCC 90028
# [10] = test system: Candida albicans
# [11] = test system: Klebsiella pneumoniae KK3 9904
# [12] = test system: Staphylococcus epidermidis RP62A
# [13] = test system: Enterococcus faecalis ATCC 29212
# [14] = test system: Staphylococcus aureus ATCC 25923
# [15] = test system: Candida parapsilosis ATCC 22019
# [16] = test system: Candida tropicalis
# [17] = test system: Schizosaccharomyces pombe
# [18] = test system: Pseudomonas aeruginosa ATCC 15692
# [19] = test system: Saccharomyces cerevisiae
# [20] = test system: Staphylococcus epidermidis ATCC 12228
# [21] = test system: Streptococcus pyogenes ATCC 21547
# [22] = test system: Staphylococcus capitis 1
# [23] = test system: Pseudomonas syringae pv. tabaci 1918NCPPB
# [24] = test system: Acinetobacter baumannii ATCC 19606
# [25] = test system: Bacillus megaterium Bm11
# [26] = test system: Acinetobacter junii RT-4
# [27] = test system: Staphylococcus aureus Cowan 1
# [28] = test system: Yersinia pseudotuberculosis YPIII
# [29] = test system: Escherichia coli D21
# [30] = test system: Candida albicans ATCC 10231
# [31] = test system: Streptococcus intermedius
# [32] = test system: Staphylococcus aureus ATCC 49476
# [33] = test system: Lactobacillus crispatus
# [34] = test system: Candida albicans ATCC 14053
# [35] = test system: Enterococcus faecium ATCC 51559
# [36] = test system: Streptococcus anginosus
# [37] = test system: Streptococcus agalactiae
# [38] = test system: Escherichia coli
# [39] = test system: Gardnerella vaginalis
# [40] = test system: Enterococcus avium
# [41] = test system: Staphylococcus aureus ATCC 43300
# [42] = test system: Lactobacillus crispatus ATCC 33820
# [43] = test system: Lactobacillus gasseri ATCC 33323
# [44] = test system: Edwardsiella tarda
# [45] = test system: Gardnerella vaginalis ATCC 14018
# [46] = test system: Staphylococcus aureus ATCC 31007
# [47] = test system: Bacillus pumilus ATCC 63202
# [48] = test system: Aeromonas hydrophila
# [49] = test system: Pseudomonas aeruginosa
# [50] = test system: Gardnerella vaginalis ATCC 49145
# [51] = test system: Lactobacillus jensenii ATCC 25258
# [52] = test system: Streptococcus pasteurianus
# [53] = test system: Enterococcus faecalis ATCC 51299
# [54] = test system: Lactiplantibacillus plantarum ATCC 14917
# [55] = test system: Staphylococcus aureus
# [56] = test system: Bacillus subtilis ATCC 9372
# [57] = test system: Staphylococcus aureus MR
# [58] = test system: Bacillus subtilis
compound,measurement,setting,value
CC[C@H](C)[C@H](NC(=O)[C@@H]1CCCN1C(=O)[C@H](CC(C)C)NC(=O)[C@@H](N)Cc1ccccc1)C(=O)N[C@@H](CC(C)C)C(=O)N[C@@H](C)C(=O)N[C@@H](CO)C(=O)N[C@@H](CC(C)C)C(=O)N[C@@H](C)C(=O)N[C@@H](C)C(=O)N[C@@H](CCCCN)C(=O)N[C@@H](Cc1ccccc1)C(=O)NCC(=O)N1CCC[C@H]1C(=O)N[C@@H](CCCCN)C(=O)N[C@@H](CC(C)C)C(=O)N[C@@H](Cc1ccccc1)C(=O)N[C@@H](CO)C(=O)N[C@@H](CC(C)C)C(=O)N[C@H](C(=O)N[C@H](C(=O)N[C@@H](CCCCN)C(=O)N[C@@H](CCCCN)C(=O)N[C@@H](CO)C(=O)O)[C@@H](C)O)C(C)C [FLPILASLAAKFGPKLFSLVTKKS],MIC,[1],40 µM
same,MIC,[2],≥ 40 µM
same,MIC,[3],50 µM
same,MIC,[4],10 µM
same,MIC,[5],≥ 40 µM
same,MIC,[6],≥ 40 µM
same,MIC,[7],≥ 40 µM
same,MIC,[8],≥ 40 µM
same,MIC,[9],25 µM
same,MIC,[10],40 µM
same,MIC,[11],≥ 40 µM
same,MIC,[12],5 µM
same,MIC,[13],20 µM
same,MIC,[14],3 µM
same,MIC,[15],≥ 40 µM
same,MIC,[16],20 µM
CC[C@H](C)[C@H](NC(=O)[C@H](CCCN=C(N)N)NC(=O)CNC(=O)[C@H](CC(C)C)NC(=O)[C@H](Cc1ccccc1)NC(=O)[C@H](CCCCN)NC(=O)[C@H](CO)NC(=O)[C@H](Cc1ccccc1)NC(=O)[C@H](Cc1c[nH]c2ccccc12)NC(=O)[C@H](CCCN=C(N)N)NC(=O)[C@@H](NC(=O)[C@@H](N)Cc1ccccc1)C(C)C)C(=O)N[C@@H](CC(C)C)C(N)=O [FVRWFSKFLGRIL],MIC,[17],12 µM
same,MIC,[18],12 µM
same,MIC,[1],24 µM
same,MIC,[19],24 µM
same,MIC,[20],3 µM
same,MIC,[3],24 µM
same,MIC,[21],3 µM
same,MIC,[22],3 µM
same,MIC,[23],6 µM
same,MIC,[24],6 µM
same,MIC,[13],12 µM
same,MIC,[14],6 µM
same,MIC,[25],3 µM
same,MIC,[26],3 µM
same,MIC,[27],6 µM
same,MIC,[28],3 µM
same,MIC,[29],12 µM
same,MIC,[30],12 µM
CC[C@H](C)[C@H](NC(=O)[C@H](C)NC(=O)[C@H](CCCCN)NC(=O)CNC(=O)[C@H](C)NC(=O)[C@H](CO)NC(=O)[C@H](Cc1ccccc1)NC(=O)[C@H](CC(C)C)NC(=O)CNC(=O)CNC(=O)[C@@H](NC(=O)[C@@H](NC(=O)[C@H](Cc1cnc[nH]1)NC(=O)[C@H](Cc1cnc[nH]1)NC(=O)[C@@H](NC(=O)[C@@H](N)Cc1ccccc1)[C@@H](C)CC)[C@@H](C)CC)[C@@H](C)CC)C(=O)N[C@@H](Cc1cnc[nH]1)C(=O)N[C@@H](CCCN=C(N)N)C(=O)N[C@@H](CC(C)C)C(=O)N[C@H](C(=O)N[C@@H](CCCN=C(N)N)C(=O)N[C@@H](CCCN=C(N)N)C(=O)N[C@@H](CCCN=C(N)N)C(=O)N[C@@H](CCCN=C(N)N)C(=O)N[C@@H](CCCN=C(N)N)C(=O)O)[C@@H](C)CC [FIHHIIGGLFSAGKAIHRLIRRRRR],MIC,[31],5.24 µM
same,MIC,[32],2.68 µM
same,MIC,[33],29.6 µM
same,MIC,[34],2.62 µM
same,MIC,[1],21.5 µM
same,MIC,[35],2.7 µM
same,MIC,[36],3.71 µM
same,MIC,[37],3.71 µM
same,MIC,[38],5 µM and 1.85 µM
same,MIC,[39],1.85 µM
same,MIC,[3],42.9 µM
same,MIC,[40],0.926 µM
same,MIC,[41],2.7 µM
same,MIC,[42],≥ 41.9 µM
same,MIC,[43],≥ 168 µM
same,MIC,[44],20 µM
same,MIC,[45],1.31 µM and 2.62 µM
same,MIC,[46],5.4 µM
same,MIC,[47],1.3 µM
same,MIC,[48],≥ 160 µM
same,MIC,[49],6.67 µM
same,MIC,[50],1.31 µM
same,MIC,[51],≥ 83.8 µM
same,MIC,[52],1.85 µM
same,MIC,[10],26.7 µM and 42.9 µM
same,MIC,[53],10.8 µM
same,MIC,[54],≥ 41.9 µM
same,MIC,[55],5 µM
same,MIC,[14],2.7 µM and 5.4 µM
same,MIC,[56],2.7 µM
same,MIC,[57],5.37 µM
same,MIC,[58],1.7 µM
